Test results from patent US20200030278A1, “PHARMACEUTICAL COMPOSITIONS OF METAP-2 INHIBITORS” (Zafgen, Inc., priority 2017, published 2020).
Read-outs that look alike come from different tables or passages of the source.

Columns and labels:
[1] = logD7.4 (physicochemical properties); conditions: pH 7.4
[2] = pKa (physicochemical properties)
Solubility (pH 7) = format: physicochemical; conditions: pH 7, aqueous buffer
[3] = Pharmacokinetics after intravenous administration in rats; conditions: in vivo, Rat, IV Bolus, 1 mg/kg
Description: (§1) Animal experiments were performed in accordance with the Guide for the Care and Use of Laboratory Animals as adopted and promulgated by the U.S. National Institutes of Health or local equivalent and were approved by the Institution's Animal Care and Use Committee or local equivalent. Unless described otherwise, animals (mouse, rat, and dog studies) were maintained under standard conditions (12-hour light/dark cycle and approximately 21±4° C. and 55±15% relative humidity), and food (Rodent pellet chow [Research Diets, Brunswick N.J., or similar] or canine pellet [Certified Dog Diet 2021C, Harlan Teklad Diets, Madison, Wis.] or canned [i.e., Cesar® Mars Petcare, Victoria, Australia]) and water were available ad libitum. Unless described otherwise, drug formulations were administered s.c. daily (efficacy studies) or every 3 days (Q3D; safety studies).

[4] = Pharmacokinetics after intravenous administration in dogs; conditions: in vivo, Dog, IV Bolus, 1 mg/kg
Description: as §1

[5] = Pharmacokinetics after subcutaneous administration in humans; format: in vivo, Human
Source text: (§2) Assessment of differences in pharmacokinetics following subcutaneous administration reflect both differences in the pharmacokinetic properties of the compounds and differences in pharmaceutical factors that affect absorption of the formulations from the injection sites.

[6] = Pharmacokinetics after subcutaneous administration in rats; format: in vivo; conditions: plasma; Rat, SC, 6 mg/kg
Description: as §1, §2

[7] = Pharmacokinetics after subcutaneous administration in dogs; format: in vivo; conditions: plasma; Dog, SC, 1 mg/kg
Description: as §1, §2

[8] = Pharmacokinetics after subcutaneous administration in rabbits; format: in vivo, Rabbit
Source text: as §2

[9] = Protein binding in rat plasma (dialysis); format: in vitro ADME; conditions: Rat Plasma, read-out: % Bound (converted)
plasma proteins [10] = assay: Protein binding in rat plasma (dialysis); format: in vitro ADME; conditions: plasma; rat, summary over concentrations; read-out: bound to plasma proteins
[11] = Protein binding in dog plasma (dialysis); format: in vitro ADME; conditions: Dog Plasma, read-out: % Bound (converted)
plasma proteins [12] = assay: Protein binding in dog plasma (dialysis); format: in vitro ADME; conditions: plasma; dog, summary over concentrations; read-out: bound to plasma proteins
[13] = Protein binding in mouse plasma (dialysis); format: in vitro ADME; conditions: read-out: % Bound (converted)
[14] = Protein binding in human plasma (dialysis); format: in vitro ADME; conditions: Human Plasma, read-out: % Bound (converted)
[15] = Red blood cell partitioning; format: in vitro ADME; conditions: Compound A compared with beloranib
[16] = Duration of plasma exposure after subcutaneous dosing, summary over species; format: in vivo, rat, dog, rabbit, human
[17] = Toxicology study in the rat, s.c. Q3D for 28 days; format: in vivo, Sprague Dawley rats; conditions: for NOAEL at 28 days / AUC(0-t) / Cmax: Sprague Dawley; for AUC(0-t) / Cmax: 6 mg/kg, NOAEL 6 mg/kg; for AUC(0-t): read-out: AUC0-t at NOAEL
Description: Male and female Sprague Dawley rats 9-10 weeks of age (Envigo RMS, Inc., Indianapolis, Ind. or Orient Bio Inc., Gyeonggi-do, South Korea) were individually housed at the testing facility. […] Animals were allocated to treatment groups based on body weight, and body weight and food consumption were recorded weekly. […] At necropsy, macroscopic pathologic findings were recorded, sperm motility and morphology were determined, selected organs were weighed, and selected tissues were collected for microscopic examination.

[18] = Hepatocyte incubation, metabolic profile, rat; format: in vitro ADME
[19] = Hepatocyte incubation, metabolic profile, dog; format: in vitro ADME
[20] = Hepatocyte incubation, metabolic profile, human; format: in vitro ADME
[21] = Pharmacokinetic study in dogs, single s.c. injection (Example 3); conditions: both, beagle, dog, plasma, sc, 0.6 mg/kg
Description: Male and female beagle dogs of 9 to 11 months of age for PK characterization were individually housed at the testing facility Approximately 325 g of pelleted food was provided daily. […] Animals were observed twice daily for signs of ill health, morbidity, mortality, injury, and viability, and detailed clinical observations were conducted daily (including urine/fecal examination and hands-on examination). Food was weighed daily, and body weights were recorded at least weekly.
Samples were collected in tubes containing lithium heparin and processed for plasma by centrifugation (10 minutes at 3000 rpm). Supernatant was removed and stored frozen (−70° C.) until processed (BASi, West Lafayette, Ind.). Plasma drug concentration data were used to calculate PK parameters for individual concentration data using noncompartmental PK methods in Watson™ version 7.3.0.01 (Thermo Fisher Scientific, Inc., Waltham, Mass.).

[22] = female, rat, in vivo, sc, Day 1, female rats
[23] = female, rat, in vivo, sc, Day 28, female rats
[24] = male, rat, in vivo, sc, Day 28, male rats

## CO[C@@H]1[C@H](OC(=O)N2CC(CCN3CCOCC3)C2)CC[C@]2(CO2)[C@H]1[C@@]1(C)O[C@@H]1CC=C(C)C [Compound A]
[1]
  logD7.4: 2.28
[2]
  pKa: 7.17
Solubility (pH 7)
  solubility: > 100 mg/mL
[3]; kel and dependent parameters estimated using two time points
  clearance: 252 mL/min/kg
[3]; kel and dependent parameters estimated using two time points (1 and 2 hours)
  half-life: 93 ± 62.4 min
[3]; kel and dependent parameters estimated using two time points, read-out: Vdss
  Vd: 2.11 ± 0.1 L/kg
[4]
  clearance: 45.3 mL/min/kg
  half-life: 39.7 ± 6.06 min
[4]; read-out: Vdss
  Vd: 1.48 ± 0.17 L/kg
[5]; Human, SC, 2.4 mg
  Cmax: 13.5 ± 2.7 ng/mL
  Tmax: 15 ± 0 min
  kel: 1.09 ± 0.34 h⁻¹
[5]; Human, SC, 2.4 mg, estimated from subcutaneous dosing
  Vdss: 3.78 ± 1.54 L/kg
[5]; humans, 2.4 mg subcutaneous dose
  plasma concentration at 8 hours after dosing: not quantifiable
[5]; plasma, Human, SC, 2.4 mg
  AUC(0-inf): 8.05 ± 1.42 ng·h/mL
  half-life: 40.9 ± 11.9 min
[6]
  AUC(0-t): 391 ± 54 ng·h/mL
  Cmax: 323 ± 26 ng/mL
  Tmax: 17.5 ± 5.04 min
[7]
  AUC(0-t): 348 ± 42 ng·h/mL
  Cmax: 122 ± 29 ng/mL
  Tmax: 55 ± 10 min
  half-life: 62.4 ± 18 min
[8]; plasma, Rabbit, SC, 1 mg/kg
  AUC(0-t): 207 ± 45 ng·h/mL
  Cmax: 173 ± 34 ng/mL
  Tmax: 19.8 ± 8.4 min
  half-life: 36.9 ± 10.1 min
[8]; rabbit, subcutaneous, last sampling time 8 hours
  time after dosing at which plasma concentrations were below the lower limit of quantification: ≤ 4 h
[9]; intended 5 nM, actual 3.64 nM at end of 4-hour dialysis
  fraction unbound at 4 h, 5 nM: 0.323
[9]; intended 10 nM, actual 7.60 nM
  fraction unbound at 4 h, 10 nM: 0.29
[9]; intended 50 nM, actual 39.7 nM
  fraction unbound at 4 h, 50 nM: 0.426
[9]; intended 100 nM, actual 76.0 nM
  fraction unbound at 4 h, 100 nM: 0.466
[9]; intended 500 nM, actual 370 nM
  fraction unbound at 4 h, 500 nM: 0.451
[9]; intended 1000 nM, actual 595 nM
  fraction unbound at 4 h, 1000 nM: 0.566
Plasma proteins [10]
  fraction unbound at 4 h: 0.3 to 0.6
[11]; intended 5 nM, actual 3.17 nM at end of 4-hour dialysis
  fraction unbound at 4 h, 5 nM: 0.311
[11]; intended 10 nM, actual 6.05 nM
  fraction unbound at 4 h, 10 nM: 0.406
[11]; intended 50 nM, actual 32.0 nM
  fraction unbound at 4 h, 50 nM: 0.326
[11]; intended 100 nM, actual 59.1 nM
  fraction unbound at 4 h, 100 nM: 0.403
[11]; intended 500 nM, actual 320 nM
  fraction unbound at 4 h, 500 nM: 0.457
[11]; intended 1000 nM, actual 527 nM
  fraction unbound at 4 h, 1000 nM: 0.469
Plasma proteins [12]
  fraction unbound at 4 h: 0.3 to 0.6
[13]; intended 5 nM, actual 5.20 nM at end of 4-hour dialysis
  fraction unbound at 4 h, 5 nM: 0.298
[13]; intended 10 nM, actual 11.1 nM
  fraction unbound at 4 h, 10 nM: 0.293
[13]; intended 50 nM, actual 56.4 nM
  fraction unbound at 4 h, 50 nM: 0.302
[13]; intended 100 nM, actual 112 nM
  fraction unbound at 4 h, 100 nM: 0.333
[13]; intended 500 nM, actual 496 nM
  fraction unbound at 4 h, 500 nM: 0.377
[13]; intended 1000 nM, actual 868 nM
  fraction unbound at 4 h, 1000 nM: 0.46
[14]; intended 5 nM, actual 1.49 nM at end of 4-hour dialysis
  fraction unbound at 4 h, 5 nM: 0.664
[14]; intended 10 nM, actual 3.14 nM
  fraction unbound at 4 h, 10 nM: 0.681
[14]; intended 50 nM, actual 15.5 nM
  fraction unbound at 4 h, 50 nM: 0.688
[14]; intended 100 nM, actual 32.7 nM
  fraction unbound at 4 h, 100 nM: 0.694
[14]; intended 500 nM, actual 165 nM
  fraction unbound at 4 h, 500 nM: 0.704
[14]; intended 1000 nM, actual 338 nM
  fraction unbound at 4 h, 1000 nM: 0.748
[15]
  red blood cell partitioning: similar
[16]; all species
  time for concentrations in plasma to return to baseline: ≤ 8 h
[16]; dosing once every 3 days in animals and twice a week in humans
  interval between doses with plasma concentrations at background / minimal exposure: approximately 54 hours
[17]; rat, in vivo, sc, female rats, s.c. Q3D, 4 weeks, read-out: NOAEL (F)
  NOAEL at 28 days: 6 mg/kg
[17]; rat, in vivo, sc, male rats, s.c. Q3D, 4 weeks, read-out: NOAEL
  NOAEL at 28 days: 6 mg/kg
[17]; both sexes, rat, in vivo, sc, Day 1, male rats
  AUC(0-t): 349 ng·h/mL
[17]; [22]
  Cmax: 278 ng/mL
  AUC(0-t): 262 ng·h/mL
[17]; [23]
  Cmax: 412 ng/mL
  AUC(0-t): 288 ng·h/mL
[17]; male, rat, in vivo, sc, Day 1, male rats
  Cmax: 351 ng/mL
[17]; [24]
  Cmax: 426 ng/mL
  AUC(0-t): 409 ng·h/mL
[17]; rat, in vivo, sc, 25 mg/kg
  tolerability of the highest dose: well tolerated
[17]; rats, s.c. Q3D, 4 weeks
  Mortality/early euthanasia: no mortality and None
[18]
  metabolic profile / predominant pathway in hepatocytes: higher amount of GSH-metabolism than for dog and human hepatocytes
[19]
  metabolic profile / predominant pathway in hepatocytes: oxidative (CYP-mediated) metabolism being predominant
[20]
  metabolic profile / predominant pathway in hepatocytes: oxidative (CYP-mediated) metabolism being predominant
[21]
  half-life: 24 min
